Source: ChEMBL document CHEMBL1201862, “PubChem BioAssay data set” (2004)
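Where inhibition never reached the appropriate level, the endpoint shown equals the highest concentration tested. Otherwise, values were interpolated linearly from a five-concentration, 48-hour dose response in 96-well plates. Here, GI50 denotes the concentration required for 50% inhibition of growth.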 Active and inactive are the calls of the source. No stated cut-off is given here; in the data, active = GI50 up to about 1.1 µM and inactive = higher.

What was measured:
Assay in all cases: NCI anticancer screen, dose series, 48 h
NCI-H226 = system: NCI-H226
HL-60 = system: HL-60
SNB-75 = system: SNB-75
SW-620 = system: SW-620
IGROV-1 = system: IGROV-1
SF-268 = system: SF-268
OVCAR-5 = system: OVCAR-5
NCI/ADR-RES = system: NCI/ADR-RES
HT-29 = system: HT-29
COLO 205 = system: COLO 205
DU-145 = system: DU-145
HOP-62 = system: HOP-62
U-251 = system: U-251
NCI-H23 = system: NCI-H23
HCT-116 = system: HCT-116
RPMI-8226 = system: RPMI-8226
MDA-N = system: MDA-N
SF-295 = system: SF-295
SK-OV-3 = system: SK-OV-3
EKVX = system: EKVX
NCI-H522 = system: NCI-H522
MDA-MB-231 = system: MDA-MB-231
OVCAR-3 = system: OVCAR-3
OVCAR-8 = system: OVCAR-8
SK-MEL-5 = system: SK-MEL-5
MCF7 = system: MCF7
786-0 = system: 786-0
M14 = system: M14
Malme-3M = system: Malme-3M
K562 = system: K562
ACHN = system: ACHN
SNB-19 = system: SNB-19
HCC 2998 = system: HCC 2998
A549 = system: A549
MDA-MB-435 = system: MDA-MB-435
SF-539 = system: SF-539
CAKI-1 = system: CAKI-1
SN12C = system: SN12C
A498 = system: A498
NCI-H460 = system: NCI-H460
BT-549 = system: BT-549
LOX IMVI = system: LOX IMVI
SR = system: SR
HCT-15 = system: HCT-15
TK-10 = system: TK-10
UACC-62 = system: UACC-62
CCRF-CEM = system: CCRF-CEM
UO-31 = system: UO-31
MOLT-4 = system: MOLT-4
Hs-578T = system: Hs-578T
T47D = system: T47D
SK-MEL-28 = system: SK-MEL-28
UACC-257 = system: UACC-257
OVCAR-4 = system: OVCAR-4
KM12 = system: KM12
RXF 393 = system: RXF 393
SK-MEL-2 = system: SK-MEL-2
PC-3 = system: PC-3

Measured: GI50

CC1=C(C(=O)NNC(=O)c2ccccc2O)CC(C(=O)NNC(=O)c2ccccc2O)=C(C)N1
inactive: NCI-H226 1.79 µM | SW-620 5.55 µM | OVCAR-5 22.6 µM | HT-29 7.93 µM | COLO 205 16.9 µM | HOP-62 5.46 µM | NCI-H23 2.1 µM | SK-OV-3 5.57 µM | EKVX 7.78 µM | NCI-H522 2.72 µM | MDA-MB-231 5 µM | OVCAR-3 1.55 µM | SK-MEL-5 2.06 µM | 786-0 3.13 µM | M14 2.22 µM | Malme-3M > 100 µM | HCC 2998 13.7 µM | SN12C 5.83 µM | A498 1.79 µM | LOX IMVI 2.58 µM | TK-10 > 47.3 µM | CCRF-CEM 4.7 µM | SK-MEL-28 > 77.3 µM | UACC-257 27.2 µM | OVCAR-4 9.4 µM
0.649 µM: HCT-15
active: HL-60 0.512 µM | SNB-75 0.292 µM | IGROV-1 0.302 µM | SF-268 0.22 µM | NCI/ADR-RES 0.448 µM | DU-145 0.566 µM | U-251 0.459 µM | HCT-116 0.435 µM | RPMI-8226 0.752 µM | MDA-N 0.336 µM | SF-295 0.535 µM | OVCAR-8 0.845 µM | MCF7 0.612 µM | K562 0.338 µM | ACHN 0.424 µM | SNB-19 0.839 µM | A549 0.48 µM | MDA-MB-435 0.425 µM | SF-539 0.796 µM | CAKI-1 0.993 µM | NCI-H460 0.533 µM | BT-549 0.446 µM | SR 0.64 µM | UACC-62 0.389 µM | UO-31 0.277 µM | MOLT-4 0.522 µM | Hs-578T 0.197 µM | T47D 0.498 µM | KM12 0.384 µM

C=C(C)C1(Sc2ccc(OC)cc2)CC1
inactive: NCI-H226 4.81 µM | HL-60 17 µM | SNB-75 21.9 µM | SW-620 17.4 µM | IGROV-1 30.5 µM | SF-268 15.8 µM | OVCAR-5 34.2 µM | NCI/ADR-RES 37.4 µM | HT-29 22.3 µM | COLO 205 17.1 µM | DU-145 57.9 µM | RXF 393 17.6 µM | HOP-62 34.1 µM | U-251 29 µM | NCI-H23 31.2 µM | HCT-116 27.2 µM | RPMI-8226 9.29 µM | MDA-N 15.6 µM | SF-295 26.9 µM | SK-OV-3 30.5 µM | EKVX 27.6 µM | SK-MEL-2 21.3 µM | MDA-MB-231 43.4 µM | OVCAR-3 14.5 µM | OVCAR-8 33 µM | SK-MEL-5 14.6 µM | MCF7 32.3 µM | 786-0 29.6 µM | M14 35.1 µM | Malme-3M 17.8 µM | K562 14.9 µM | ACHN 33.6 µM | SNB-19 45.4 µM | HCC 2998 14.5 µM | A549 30.8 µM | MDA-MB-435 7.94 µM | SF-539 23.2 µM | CAKI-1 30.5 µM | SN12C 17.5 µM | A498 29.3 µM | NCI-H460 31 µM | BT-549 17.1 µM | LOX IMVI 17.3 µM | SR 14.6 µM | TK-10 48.1 µM | UACC-62 51.9 µM | CCRF-CEM 17.5 µM | UO-31 12.2 µM | MOLT-4 13.8 µM | T47D 31.9 µM | SK-MEL-28 79.1 µM | UACC-257 21.2 µM | OVCAR-4 34.9 µM | PC-3 29.3 µM | KM12 25 µM
24.4 µM: HCT-15
